Reference: PMC5999115, “Anti-tumor activity of phenoxybenzamine and its inhibition of histone deacetylases” (PLoS ONE, 2018)

How the values were obtained:
[1] = target: T1, HDAC3/NCOR2 (Homo sapiens, UniProt O15379); assay: Fluorogenic HDAC deacetylase assay (BPS Bioscience); assay type: biochemical
T1 construct: purchased BPS Bioscience 50003

[2] = target: T2, HDAC7 (Homo sapiens, UniProt Q8WUI4); assay: as above; assay type: biochemical
T2 construct: purchased BPS Bioscience 50007

[3] = tested on: CNXF U-251; assay: Oncotest CellTiter-Blue cell viability assay, 72 hours; assay type: cell-based, human
Method: Further studies with varying drug concentrations on selected human cell lines, in most cases those studied in the NCI60 screen, were conducted by Oncotest GmbH laboratories, Freiburg, Germany; Oncotest is a division of Charles River Laboratories. The dissolution procedure for PBZ and the cell culture […] was 72 hours; anti-tumor activity was determined with the CellTiter-Blue® Cell Viability Assay, Promega, Mannheim, Germany. The 50% Inhibitory (IC50) concentrations were determined. The results are the average of duplicate assays. Paclitaxel was included as a reference compound to confirm the integrity of the assays. See S1 Appendix for further details.
“Cell lines were routinely passaged once or twice weekly and maintained in culture for up to 20 passages. Cells were grown at 37°C in a humidified atmosphere with 5% CO2 in RPMI 1640 medium (25 mM HEPES, with L-glutamine, #FG1385, Biochrom, Berlin, Germany) supplemented with 10% (v/v) fetal calf serum (Sigma, Taufkirchen, Germany) and 0.1 mg/mL gentamicin (Life Technologies, Karlsruhe, Germany).”

[4] = target: T3, HDAC6 (Homo sapiens, UniProt Q9UBN7); assay: Fluorogenic HDAC deacetylase assay (BPS Bioscience); assay type: biochemical
T3 construct: purchased BPS Bioscience 50006
T3 sequence (Q9UBN7 whole entry): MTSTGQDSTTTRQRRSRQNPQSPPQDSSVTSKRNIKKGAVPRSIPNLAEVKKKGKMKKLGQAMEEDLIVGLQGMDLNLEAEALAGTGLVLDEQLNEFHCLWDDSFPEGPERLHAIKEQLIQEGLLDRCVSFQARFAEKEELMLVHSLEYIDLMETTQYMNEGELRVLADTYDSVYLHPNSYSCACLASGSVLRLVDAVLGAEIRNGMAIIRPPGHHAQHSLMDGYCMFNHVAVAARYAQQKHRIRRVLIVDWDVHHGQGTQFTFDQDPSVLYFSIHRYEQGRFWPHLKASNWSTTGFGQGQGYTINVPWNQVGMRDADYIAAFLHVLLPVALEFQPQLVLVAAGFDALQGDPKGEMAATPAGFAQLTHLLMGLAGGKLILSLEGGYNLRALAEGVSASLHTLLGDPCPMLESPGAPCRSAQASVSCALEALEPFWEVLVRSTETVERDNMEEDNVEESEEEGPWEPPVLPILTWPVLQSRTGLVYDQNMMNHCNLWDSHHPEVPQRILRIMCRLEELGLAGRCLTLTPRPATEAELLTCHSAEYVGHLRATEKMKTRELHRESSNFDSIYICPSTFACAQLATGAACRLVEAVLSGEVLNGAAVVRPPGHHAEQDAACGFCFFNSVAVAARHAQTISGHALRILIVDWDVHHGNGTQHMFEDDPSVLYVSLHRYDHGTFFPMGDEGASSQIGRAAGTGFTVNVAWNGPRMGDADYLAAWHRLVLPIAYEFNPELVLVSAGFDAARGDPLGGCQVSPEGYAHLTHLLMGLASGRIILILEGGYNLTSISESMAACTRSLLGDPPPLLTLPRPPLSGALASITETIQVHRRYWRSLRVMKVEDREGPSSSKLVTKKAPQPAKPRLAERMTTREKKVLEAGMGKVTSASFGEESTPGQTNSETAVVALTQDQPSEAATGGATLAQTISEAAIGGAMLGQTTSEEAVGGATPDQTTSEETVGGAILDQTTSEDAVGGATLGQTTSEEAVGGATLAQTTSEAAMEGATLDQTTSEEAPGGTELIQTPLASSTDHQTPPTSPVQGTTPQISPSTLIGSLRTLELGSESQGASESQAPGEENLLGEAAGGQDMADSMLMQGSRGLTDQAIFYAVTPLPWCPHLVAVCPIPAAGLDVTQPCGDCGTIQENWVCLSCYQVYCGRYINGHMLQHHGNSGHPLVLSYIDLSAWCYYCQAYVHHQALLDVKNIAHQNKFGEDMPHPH

[5] = target: T4, HDAC11 (Homo sapiens, UniProt Q96DB2); assay: as above; assay type: biochemical; conditions: read-out: % inhibition @ 10 uM
T4 construct: purchased BPS Bioscience 50011
T4 sequence (Q96DB2 whole entry): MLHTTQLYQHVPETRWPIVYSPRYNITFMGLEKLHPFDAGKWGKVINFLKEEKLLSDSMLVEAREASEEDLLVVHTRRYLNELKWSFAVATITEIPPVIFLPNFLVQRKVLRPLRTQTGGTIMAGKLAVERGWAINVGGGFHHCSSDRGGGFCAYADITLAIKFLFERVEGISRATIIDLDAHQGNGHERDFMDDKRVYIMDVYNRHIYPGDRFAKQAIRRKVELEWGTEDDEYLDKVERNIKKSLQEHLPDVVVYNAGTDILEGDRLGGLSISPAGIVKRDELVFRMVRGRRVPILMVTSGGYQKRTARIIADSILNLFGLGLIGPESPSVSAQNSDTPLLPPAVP

[6] = target: T5, HDAC5 (Homo sapiens, UniProt Q9UQL6); assay: as above; assay type: biochemical
T5 construct: purchased BPS Bioscience 50005
T5 sequence (Q9UQL6 656-1122 limits assumed): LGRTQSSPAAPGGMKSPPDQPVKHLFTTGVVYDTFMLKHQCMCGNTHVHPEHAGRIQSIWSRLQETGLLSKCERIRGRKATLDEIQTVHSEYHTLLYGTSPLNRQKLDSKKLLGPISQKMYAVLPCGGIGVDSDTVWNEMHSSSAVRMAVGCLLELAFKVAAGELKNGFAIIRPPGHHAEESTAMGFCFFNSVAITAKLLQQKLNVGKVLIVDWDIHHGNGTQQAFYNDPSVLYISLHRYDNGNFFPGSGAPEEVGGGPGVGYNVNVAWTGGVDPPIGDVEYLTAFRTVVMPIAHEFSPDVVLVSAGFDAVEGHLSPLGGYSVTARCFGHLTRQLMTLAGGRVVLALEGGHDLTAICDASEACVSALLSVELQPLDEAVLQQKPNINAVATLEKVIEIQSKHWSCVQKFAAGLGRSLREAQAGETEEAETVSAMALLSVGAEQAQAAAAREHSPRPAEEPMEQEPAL

[7] = target: T6, HDAC2 (Homo sapiens, UniProt Q92769); assay: biochemical; conditions: read-out: % inhibition @ 10 uM
T6 construct: purchased BPS Bioscience 50002
T6 sequence (Q92769 whole entry): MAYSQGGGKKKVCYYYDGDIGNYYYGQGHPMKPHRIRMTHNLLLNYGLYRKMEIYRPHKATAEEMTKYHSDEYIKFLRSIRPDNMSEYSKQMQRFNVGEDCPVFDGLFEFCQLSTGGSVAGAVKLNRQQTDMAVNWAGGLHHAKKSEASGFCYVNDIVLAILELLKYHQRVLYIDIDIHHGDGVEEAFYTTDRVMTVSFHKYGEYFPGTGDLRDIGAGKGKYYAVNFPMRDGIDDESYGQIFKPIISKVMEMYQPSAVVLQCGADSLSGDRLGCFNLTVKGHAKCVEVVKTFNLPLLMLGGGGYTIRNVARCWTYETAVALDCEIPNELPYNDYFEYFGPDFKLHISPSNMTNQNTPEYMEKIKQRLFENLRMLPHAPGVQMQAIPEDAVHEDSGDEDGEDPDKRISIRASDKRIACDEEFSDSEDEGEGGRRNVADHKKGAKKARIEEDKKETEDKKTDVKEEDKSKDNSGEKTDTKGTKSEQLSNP

[8] = target: T7, HDAC8 (Homo sapiens, UniProt Q9BY41); assay: Fluorogenic HDAC deacetylase assay (BPS Bioscience); assay type: biochemical
T7 construct: purchased BPS Bioscience 50008
T7 sequence (Q9BY41 whole entry): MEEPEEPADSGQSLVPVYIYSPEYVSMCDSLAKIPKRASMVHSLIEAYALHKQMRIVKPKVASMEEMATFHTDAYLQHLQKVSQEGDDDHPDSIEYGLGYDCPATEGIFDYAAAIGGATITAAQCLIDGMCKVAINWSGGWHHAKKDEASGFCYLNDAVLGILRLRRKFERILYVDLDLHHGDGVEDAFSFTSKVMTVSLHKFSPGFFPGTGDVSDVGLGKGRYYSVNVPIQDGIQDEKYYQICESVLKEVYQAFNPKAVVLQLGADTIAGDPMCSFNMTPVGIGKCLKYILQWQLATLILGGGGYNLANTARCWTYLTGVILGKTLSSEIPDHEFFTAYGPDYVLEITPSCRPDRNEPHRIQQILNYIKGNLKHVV

[9] = target: T8, HDAC1 (Homo sapiens, UniProt Q13547); assay: as above; assay type: biochemical; conditions: read-out: % inhibition @ 10 uM
T8 construct: purchased BPS Bioscience 50051

[10] = tested on: pulmonary arterial hypertension in a rat model; set-up: method as in earlier work; conditions: daily injections following monocrotaline; after 4 weeks of treatment; cited from earlier work
[11] = target: T9, HDAC9 (Homo sapiens, UniProt Q9UKV0); assay: Fluorogenic HDAC deacetylase assay (BPS Bioscience); assay type: biochemical
T9 construct: purchased BPS Bioscience 50009
T9 sequence (Q9UKV0 1-1066 isoform Q9UKV0-5): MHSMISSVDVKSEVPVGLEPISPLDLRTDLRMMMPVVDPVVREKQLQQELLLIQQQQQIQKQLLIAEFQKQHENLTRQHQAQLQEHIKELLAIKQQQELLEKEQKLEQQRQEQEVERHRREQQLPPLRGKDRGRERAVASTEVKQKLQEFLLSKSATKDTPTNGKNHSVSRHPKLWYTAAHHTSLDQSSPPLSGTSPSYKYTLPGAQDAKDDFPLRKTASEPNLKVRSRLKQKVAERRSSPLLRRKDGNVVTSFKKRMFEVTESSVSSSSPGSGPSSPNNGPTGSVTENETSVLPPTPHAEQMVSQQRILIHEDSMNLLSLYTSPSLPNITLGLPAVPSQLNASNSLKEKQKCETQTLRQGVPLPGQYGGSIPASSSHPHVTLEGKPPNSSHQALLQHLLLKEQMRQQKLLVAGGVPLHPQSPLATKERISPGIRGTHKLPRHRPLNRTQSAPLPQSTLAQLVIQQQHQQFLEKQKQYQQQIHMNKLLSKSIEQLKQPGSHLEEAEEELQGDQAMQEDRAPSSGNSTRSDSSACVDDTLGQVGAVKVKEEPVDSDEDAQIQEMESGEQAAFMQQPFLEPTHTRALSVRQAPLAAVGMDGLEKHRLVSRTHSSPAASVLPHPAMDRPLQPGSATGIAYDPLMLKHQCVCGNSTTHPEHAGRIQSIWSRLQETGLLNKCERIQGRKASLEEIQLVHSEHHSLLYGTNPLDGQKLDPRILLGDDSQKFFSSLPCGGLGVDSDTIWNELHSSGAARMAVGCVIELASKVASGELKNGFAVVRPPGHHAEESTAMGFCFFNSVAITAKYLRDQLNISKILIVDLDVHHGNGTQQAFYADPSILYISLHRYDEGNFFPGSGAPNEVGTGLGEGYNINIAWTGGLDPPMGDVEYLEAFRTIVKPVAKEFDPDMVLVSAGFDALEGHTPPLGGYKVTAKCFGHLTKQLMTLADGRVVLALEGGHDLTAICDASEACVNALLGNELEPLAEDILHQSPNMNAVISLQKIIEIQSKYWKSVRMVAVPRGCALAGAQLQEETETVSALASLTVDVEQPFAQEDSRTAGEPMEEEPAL

[12] = target: T10, HDAC10 (Homo sapiens, UniProt Q969S8); assay: as above; assay type: biochemical; conditions: read-out: % inhibition @ 10 uM
T10 construct: purchased BPS Bioscience 50060

[13] = tested on: CFA-affected animals; set-up: method as in PMID 20846436; conditions: cited from earlier work
[14] = tested on: NCI-H522; assay: NCI60 screen, Sulforhodamine B assay; assay type: cell-based, human; conditions: 10 μM phenoxybenzamine
Method: (§1) The results of these studies were included in an application for the screening of PBZ in the National Cancer Institute NCI60 screening program (https://dtp.cancer.gov/discovery_development/nci-60); they measured its effects on growth in cultures of 60 human tumors. This initial screen was conducted at only one drug concentration, 10 μM. We supplied the United States Pharmacopeial reference standard of PBZ-hydrochloride in powder form. The NCI60 standard procedure for dissolution of a synthetic molecule like PBZ involved initial dilution in 9:1 dimethyl sulfoxide (DMSO): glycerol at a concentration of 4 mM; the solution was then diluted 1:200 with complete culture medium (RPMI 1640 medium containing 5% fetal calf serum (FCS), 2 mM L-glutamine and 50 μg/ml gentamicin to give a final concentration of 20 μM; 100 μl of the drug-medium mixture was added to 100 μl of the cell cultures already in complete medium. The microtiter plates were incubated for 48 hr at 37°C, 5% CO2, 95% air, and 100% relative humidity (see S1 Appendix for further details).
(§2) The reason for the lack of activity after dissolution in DMSO has not been pursued further, but DMSO was eliminated in all subsequent assay systems.

[15] = tested on: UACC-257; assay: NCI60 screen, Sulforhodamine B assay; assay type: cell-based, human; conditions: 10 μM phenoxybenzamine
Method: as §1, §2

[16] = tested on: OVCAR-8; assay: NCI60 screen, Sulforhodamine B assay; assay type: cell-based, human; conditions: 10 μM phenoxybenzamine
Method: as §1, §2

[17] = tested on: PC-3; assay: NCI60 screen, Sulforhodamine B assay; assay type: cell-based, human; conditions: 10 μM phenoxybenzamine
Method: as §1, §2

[18] = tested on: RPMI 8226; assay: NCI60 screen, Sulforhodamine B assay; assay type: cell-based, human; conditions: 10 μM phenoxybenzamine
Method: as §1, §2

[19] = tested on: T47D; assay: NCI60 screen, Sulforhodamine B assay; assay type: cell-based, human; conditions: 10 μM phenoxybenzamine
Method: as §1, §2

[20] = tested on: implanted tumors (malignant glioma); set-up: method as in PMID 26409450; conditions: direct injection into implanted tumors; cited from earlier work
[21] = tested on: cultures of 60 human tumors; assay: NCI60 human tumor culture screen, initial study with DMSO dissolution; assay type: cell-based; conditions: initially dissolved in DMSO
Method: as §1

[22] = Aqueous solubility in the NCI60 assay conditions; assay type: physicochemical
Description: as §2

[23] = target: T11, HDAC4 (Homo sapiens, UniProt P56524); assay: Fluorogenic HDAC deacetylase assay (BPS Bioscience); assay type: biochemical; conditions: read-out: % inhibition @ 10 uM
T11 construct: purchased BPS Bioscience 50004

[24] = CNXF U-251, 1% FCS, study P495C
[25] = CNXF U-251, 10% FCS, study P495A

T2 sequence (Q8WUI4 518-952 limits assumed): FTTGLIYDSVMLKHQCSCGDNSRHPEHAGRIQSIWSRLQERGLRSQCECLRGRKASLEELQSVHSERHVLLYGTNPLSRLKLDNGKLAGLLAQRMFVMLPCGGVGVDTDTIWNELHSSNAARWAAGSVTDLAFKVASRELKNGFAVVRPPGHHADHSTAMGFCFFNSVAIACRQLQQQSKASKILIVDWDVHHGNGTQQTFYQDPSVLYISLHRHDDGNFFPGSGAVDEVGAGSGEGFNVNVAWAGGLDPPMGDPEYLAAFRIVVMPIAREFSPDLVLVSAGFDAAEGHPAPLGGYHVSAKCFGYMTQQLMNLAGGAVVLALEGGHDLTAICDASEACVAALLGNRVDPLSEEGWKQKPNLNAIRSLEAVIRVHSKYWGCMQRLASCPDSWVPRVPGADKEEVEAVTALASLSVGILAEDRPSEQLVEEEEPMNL
T1 sequence (O15379 whole entry): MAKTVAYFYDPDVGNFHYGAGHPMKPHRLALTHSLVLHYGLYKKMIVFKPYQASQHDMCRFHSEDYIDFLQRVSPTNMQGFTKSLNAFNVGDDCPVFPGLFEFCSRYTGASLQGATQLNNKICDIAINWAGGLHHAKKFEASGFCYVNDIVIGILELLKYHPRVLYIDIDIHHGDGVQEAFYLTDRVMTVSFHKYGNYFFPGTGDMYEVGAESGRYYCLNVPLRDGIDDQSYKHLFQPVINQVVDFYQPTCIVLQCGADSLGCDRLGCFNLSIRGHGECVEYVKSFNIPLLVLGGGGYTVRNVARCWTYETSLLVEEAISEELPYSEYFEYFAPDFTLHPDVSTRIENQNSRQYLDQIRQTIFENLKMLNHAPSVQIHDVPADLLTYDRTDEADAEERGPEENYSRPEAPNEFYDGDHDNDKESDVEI
T1 sequence (Q9Y618 395-489 partner limits assumed): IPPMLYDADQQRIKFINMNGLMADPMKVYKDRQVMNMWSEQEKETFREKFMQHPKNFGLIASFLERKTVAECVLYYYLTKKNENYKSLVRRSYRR

CC(COc1ccccc1)N(CCCl)Cc1ccccc1 (stereo not drawn) [PBZ, phenoxybenzamine]
% inhibition @ 10 uM ([1]; HDAC3/NCOR2, 10 µM): ~30% | inhibition at 10 µM ([1]; read-out: % inhibition @ 10 uM, HDAC3/NCOR2): 31% | % inhibition @ 10 uM ([2]; HDAC7, 10 µM): ~30% | inhibition at 10 µM ([2]; read-out: % inhibition @ 10 uM, HDAC7): 34% | Test/Control (%) at Drug Concentration [uM] 1,0E+00 [3, 24]: 98% | Test/Control (%) at Drug Concentration [uM] 1,0E+01 [3, 24]: 102% | Test/Control (%) at Drug Concentration [uM] 1,0E+02 [3, 24]: 36% | Test/Control (%) at Drug Concentration [uM] 3,2E+00 [3, 24]: 102% | Test/Control (%) at Drug Concentration [uM] 3,2E+01 [3, 24]: 98% | Test/Control (%) at Drug Concentration [uM] 1,0E+00 [3, 25]: 92% | Test/Control (%) at Drug Concentration [uM] 1,0E+01 [3, 25]: 103% | Test/Control (%) at Drug Concentration [uM] 1,0E+02 [3, 25]: 98% | Test/Control (%) at Drug Concentration [uM] 1,0E-01 [3, 25]: 90% | Test/Control (%) at Drug Concentration [uM] 1,0E-02 [3, 25]: 90% | Test/Control (%) at Drug Concentration [uM] 3,2E+00 [3, 25]: 94% | Test/Control (%) at Drug Concentration [uM] 3,2E+01 [3, 25]: 118% | Test/Control (%) at Drug Concentration [uM] 3,2E-01 [3, 25]: 93% | Test/Control (%) at Drug Concentration [uM] 3,2E-02 [3, 25]: 93% | Test/Control (%) at Drug Concentration [uM] 3,2E-03 [3, 25]: 85% | IC50 ([3]; Homo sapiens, CNXF U-251 CNS, 1% FCS): 83.1 µM | IC50 [4]: 0.59 µM | inhibition at 10 µM [5]: 0% | IC50 [6]: 9.8 µM | inhibition at 10 µM [7]: 0% | % inhibition @ 10 uM ([8]; HDAC8, 10 µM): ~30% | inhibition at 10 µM ([8]; read-out: % inhibition @ 10 uM, HDAC8): 34% | inhibition at 10 µM [9]: 16% | decrease in right-ventricular hypertrophy [10]: 69% | inhibition in the increase in medial thickening of pulmonary arteries [10]: 80% | IC50 [11]: 5.3 µM | inhibition at 10 µM [12]: 0% | reversing the heightened pain sensitivity of the CFA-affected animals [13]: equipotent with the nonsteroidal anti-inflammatory drug, naproxen | Percent cell growth in NCI60 screen with 5% FCS (48 hr incubation) [14]: 73% | Percent cell growth in NCI60 screen with 5% FCS (48 hr incubation) [15]: 76% | Percent cell growth in NCI60 screen with 5% FCS (48 hr incubation) [16]: 53% | Percent cell growth in NCI60 screen with 5% FCS (48 hr incubation) [17]: 63% | Percent cell growth in NCI60 screen with 5% FCS (48 hr incubation) [18]: 60% | Percent cell growth in NCI60 screen with 5% FCS (48 hr incubation) [19]: 60% | expansion of tumor volume in vivo [20]: marked reduction in expansion of tumor volume | biological effect in NCI60 screen [21]: essentially no biological effect | aqueous solubility [22]: adequate aqueous solubility | inhibition at 10 µM [23]: 25%
